Results published in publication PMC12135518 (Antimicrobial Agents and Chemotherapy, 2025).
Where two headings read alike, the source gives them in different places.

What was measured:
[1] = cited from earlier work
MRSA = conditions: patients achieving AUC24h/MIC ≥900; cited from earlier work
[2] = Population pharmacokinetic modeling of teicoplanin plasma concentrations (two-compartment model, Phoenix NLME, FOCE-ELS); format: in vivo, renal transplant patients
Method: This prospective study was conducted at the kidney transplantation department in the Second Xiangya Hospital of Central South University (Changsha, China). […] The exclusion criteria were as follows: (i) lack any of the demographic and laboratory data described below, (ii) unable to get the blood samples, and (iii) pregnancy. This study was approved by the Ethics Committee of the Second Xiangya Hospital, Central South University, and informed consent was obtained from all patients or legal representatives of the patients. The study employed a two-phase enrollment design to establish and validate the population PK model. Initial model development utilized patient data collected between January 2022 and December 2023. Following the establishment of the final population PK model, a distinct cohort of patients was prospectively recruited between November 2024 and March 2025 to conduct an external validation.
The supernatant was immediately stored at −80℃ until analysis.
Plasma samples (200 µL) were extracted by protein precipitation with MARG-1A (500 µL), after vortex oscillation for 1 minute, centrifugation at 14,500 r/min for 8 min, and 600 µL of the clear supernatant was transferred into autosampler vials for further analysis.
One-, two-, and three-compartment models with first-order elimination were evaluated as potential structural PK models based on changes in the objective function value (OFV, −2 × log-likelihood) and goodness-of-fit plots. The inter-individual variability of the PK parameters was evaluated using an exponential model. Residual variability was selected with additive, proportional, and combined error models:
The following patient covariates were tested for their influence on the PK parameters of teicoplanin: age, sex, body weight, ALT, AST, TBIL, DBIL, ALB, baseline, and real-time CrCL. The stepwise covariate modeling (SCM) approach was used to test the covariate model in this analysis. A reduction in OFVs of ≥3.84 was considered to be statistically significant (P < 0.05) for the inclusion of one covariate in the forward inclusion steps, and an increase in OFVs of ≥6.63 was considered to be statistically significant (P < 0.01) in the backward elimination steps.
The validity of the final model was assessed by visual inspection of goodness-of-fit (GoF) plots, including observed concentrations versus individual predictions (IPRED), observed concentrations versus population predictions (PRED), and conditional weighted residuals (CWRES) versus population predictions and time. Next, the accuracy and stability of the final model were evaluated using the bootstrap method. The medians and 95% confidence intervals of the PK parameter estimates were obtained from the 1,000 bootstrap runs. The model was considered stable if the typical population values for the PK parameters of the final model were within the 95% confidence interval of the bootstrap results, and the biases were less than 10% with no bias across zero.

plasma albumin = conditions: ref not given; cited from earlier work
From the text: After that, a suitable maintaining dose should be employed to sustain the target concentration.

[3] = at equivalent dosages, cited from earlier work
From the text: Different pharmacokinetic characteristics are anticipated in renal transplant patients depending on the unique physiologic status of these patients ([18], [19]). Moreover, in the early postoperative phase following kidney transplantation, patients undergo gradual recovery of renal function, accompanied by increased urine output and a rapid decline in serum creatinine levels, typically returning to normal within 2–4 weeks ([20][–][22]). […] In addition, renal transplant patients are mor ...

[4] = renal transplant patients, 306 plasma samples from 79 patients

Substance	distribution (volume) in previous models ([1]; mostly critically ill patients)	CL in critically ill patients ([1]; previously reported values, critically ill patients, no ref printed at the value)	treatment success rate (MRSA)	CL, bootstrap estimate (median) ([2]; bootstrap method (n = 992))	CLd, bootstrap estimate (median) ([2]; bootstrap method (n = 992))	CrCLCL, bootstrap estimate (median) ([2]; bootstrap method (n = 992))	Vc, bootstrap estimate (median) ([2]; bootstrap method (n = 992))	Vp, bootstrap estimate (median) ([2]; bootstrap method (n = 992))	distribution (volume) in the present model ([2]; renal transplant patients)	CLd, clearance between the central compartment and peripheral compartment (final model estimate) [2, 4]	Vc, volume distribution in the central compartment (final model estimate) [2, 4]	Vp, volume in the peripheral compartment (final model estimate) [2, 4]	CL, clearance in the central compartment (final model estimate, typical value) ([2]; renal transplant patients, iv 400 mg q12h x3 then 400 mg once daily, 1 h infusion, 306 plasma samples from 79 patients, 2LC-MS/MS, CL=0.711×(CrCL÷17)^0.198)	plasma protein binding rate (plasma albumin)	incidence of neurological toxicity ([3]; other patients)	incidence of pigment toxicity ([3]; other patients)	incidence of neurological toxicity ([3]; renal transplant patients)	incidence of pigment toxicity ([3]; renal transplant patients)
teicoplanin	60.5 to 121.1 L	0.838 to 1.03 L/h	87%	0.714 L/h	4.22 L/h	0.196	11.3 L	35 L	46.6 L	4.22 L/h	11.3 L	35.3 L	0.711 L/h	about 90%				
polymyxin B															27%	15%	63.4%	51.5%
